Entries after “also recorded” stand apart in the source; their conditions may differ.
Key:
[1] = tested on: Micrococcus luteus ATCC 9631; settings: Gram + Bacteria; cited from earlier work
[2] = tested on: Mold mite Tyrophagus putrescentiae; assay: Mold mite survivorship in diet with Mirenat-G (LAE in glycerin), four weeks (Example 3); format: in vivo; settings: for Mold mites number: four weeks after infestation with 25 individuals, n = 15, means ± SEM
Experimental: This example determines the effect of three different concentrations of LAE on the mortality, reproduction and immature development of mold mite Tyrophagus putrescentiae. The dose level tested were 0.125%, 0.25% and 0.5% of LAE.
(§1) Mixed developmental stages of the Mold mite, Tyrophagus putrescentiae, were used in the experiments. The individuals of this specie came from IRTA, Crop Protection Department and had been maintained on standard diets at 25±1° C., 70±10% r.h. and a photoperiod of 16:8 L:D. Experiments were conducted in a climatic chamber at the same environmental conditions.
The food additive Mirenat-G (10.5% LAE in glycerin) was supplied by the company VEDEQSA and was uniformly mixed with a mix of bran, brewer's yeast for the Mold mite. It was tested at the following dosages of 0.125%, 0.25% and 0.5% LAE. A control treatment with no food additive was included for reference. Fifteen replications per treatment were prepared.
(§2) For the mold mite, the experimental arenas were ventilated plastic cages (100 ml) containing 15 g of a mixed diet (bran, brewer's yeast and glycerin). Mites were added to arenas in numbers of 25 individuals. Plastic cages were isolated in hermetic boxes containing a solution of glycerine in order to maintain the relative humidity at 75%.
Four weeks after T. putrescentiae infestation the total number of individuals present in each replication was counted.
The mean number of individuals were compared between treatments with or without the additive for the pest specie using a one-way analysis of variance (ANOVA) procedure and means were separated by Tukey test (PROC GLM; SAS Institute 2000).

[3] = tested on: Arthrobacter oxydans ATCC 8010; settings: Gram + Bacteria; cited from earlier work
[4] = tested on: Citrobacter freundii ATCC 22636; settings: Gram − Bacteria; cited from earlier work
[5] = tested on: Mycobacterium phlei ATCC 41423; settings: listed under Gram − Bacteria; cited from earlier work
[6] = tested on: mite colonies; assay: Mite colonies on cured ham treated with LAE on the surface (Example 4); format: in vivo
Experimental: A dose level of 200 ppm of LAE (or 0.02% of LAE) was added onto the surface of a ham at the beginning of its curing process. The results were compared with a control sample that consisted on a cured ham without being treated with LAE. All hams (control and treated with LAE) were cured during a period of 6 months.
After 6 months, when the curing process was finished it was observed that 85% of ham not treated with LAE (control samples) had mite colonies alive onto the surfaces of hams. In contrast, only 30% of hams treated with LAE had mite colonies alive onto their surface.
Before delivering the hams to the client, the producer extracted the bone in order to slice the ham. It was observed that 25% of ham non-treated with LAE (control) contained mite colonies alive inside the ham. The presence of mite colonies produced the formation of holes between 2 to 3 cm of diameter. These holes in the ham looked like a putrefacted ham.

[7] = tested on: Bacillus subtilis ATCC 6633; settings: Gram + Bacteria; cited from earlier work
[8] = tested on: Saccharomyces cerevisiae ATCC 9763; settings: Yeast; cited from earlier work
[9] = tested on: Aureobasidium pullulans ATCC 9348; settings: Fungi; cited from earlier work
[10] = tested on: Rhodotorula rubra CECT 1158; settings: Yeast; cited from earlier work
[11] = tested on: Mold mite Tyrophagus putrescentiae; assay: Mold mite survivorship in rearing diet with LAE, six weeks (Example 2); format: in vivo; settings: 1% LAE in diet
Experimental: This example determines the effect of LAE on the mortality, reproduction and immature development of Mold mite Tyrophagus putrescentiae.
as §1, with “the species” for “this specie”
The food additive (LAE) was supplied by the company VEDEQSA as a fine sifted dust, and was uniformly mixed with a mix of bran, brewer's yeast and glycerin for the Mold mite. A high dosage of 1% LAE was tested. A control treatment with no food additive was included for reference. Fifteen replications per treatment were prepared.
as §2, with “giycerine).” for “glycerin).”
Six weeks after T. putrescentiae infestation the total number of individuals present in each replication was counted. […]

[12] = tested on: Hyalomma marginatum rufipes; assay: Mortality of adult ticks in vials with LAE in a food carrier (Example 1); settings: 24 h contact
Experimental: This example determines the activity of LAE against a type of tick, Hyalomma marginatum rufipes.
During 3 weeks adult ticks of Hyalomma marginatum rufipes were unfed. 15 unsexed ticks were introduced in each vial of treatment. All vials were closed with a mesh and plastic bands in order to avoid that ticks could escape from the vials. The mortality of ticks was studied 24 h later and compared from the different treatments performed.
Two types of treatment were performed and then compared with the control. One treatment consisted in a dispersion of 0.2% LAE in a food carrier. The other treatment was 1.0% LAE in a food carrier. The control was a vial that contained the ticks without LAE. For each treatment and control samples 5 replicates were carried out.
After 24 hours of contact of ticks with LAE in the vials, the percentage of mortality of ticks was determined (Table 2).

[13] = tested on: Bordetella bronchiseptica ATCC 4617; settings: Gram − Bacteria; cited from earlier work
[14] = tested on: Bacillus cereus var mycoide ATCC 11778; settings: Gram + Bacteria; cited from earlier work
[15] = tested on: Escherichia coli 0157H7; settings: Gram − Bacteria; cited from earlier work
[16] = tested on: Escherichia coli ATCC 8739; settings: Gram − Bacteria; cited from earlier work
[17] = tested on: Klebsiella pneumoniae var pneumoniae CECT 178; settings: Gram − Bacteria; cited from earlier work
[18] = tested on: Leuconostoc mesenteroides CETC 912; settings: Gram + Bacteria; cited from earlier work
[19] = tested on: Serratia marcenses CECT 274; settings: Gram − Bacteria; cited from earlier work
[20] = tested on: Penicillium funiculosum CECT 2914; settings: Fungi; cited from earlier work
[21] = tested on: Alcaligenes faecalis ATCC 8750; settings: Gram − Bacteria; cited from earlier work
[22] = tested on: Enterobacter aerogenes CECT 689; settings: Gram − Bacteria; cited from earlier work
[23] = tested on: Salmonella typhimurium ATCC16028; settings: Gram − Bacteria; cited from earlier work
[24] = tested on: Listeria monocytogenes ATCC 7644; settings: Gram + Bacteria; cited from earlier work
[25] = tested on: Aspergillus niger ATCC14604; settings: Fungi; cited from earlier work
[26] = tested on: Staphylococcus aureus ATCC 6538; settings: Gram + Bacteria; cited from earlier work
[27] = tested on: Proteus mirabilis CECT 170; settings: Gram − Bacteria; cited from earlier work
[28] = tested on: Clostridium perfringens ATCC 77454; settings: Gram + Bacteria; cited from earlier work
[29] = tested on: Candida albicans ATCC 10231; settings: Yeast; cited from earlier work
[30] = tested on: Lactobacillus delbrueckii ssp lactis CECT 372; settings: Gram + Bacteria; cited from earlier work
[31] = tested on: Pseudomonas aeruginosa ATCC 9027; settings: Gram − Bacteria; cited from earlier work
[32] = tested on: Chaetonium globosum ATCC 6205; settings: Fungi; cited from earlier work
[33] = tested on: Penicillium chrysogenum CECT 2802; settings: Fungi; cited from earlier work
[34] = rats; cited from earlier work
[35] = animals and humans; cited from earlier work
[36] = tested on: Gliocadium virens ATCC 4645; settings: Fungi; cited from earlier work

Which results are given for CCCCCCCCCCCC(=O)N[C@@H](CCCN=C(N)N)C(=O)OCC.Cl [LAE, ethyl ester of the lauramide of the arginine monohydrochloride]?
M.I.C. [1]: 128 ppm; Mold mites number ([2]; 0.125% LAE (as Mirenat-G) in diet): 20.9 ± 9.77; Mold mites number ([2]; 0.25% LAE (as Mirenat-G) in diet): 13.17 ± 3.70; Mold mites number ([2]; 0.5% LAE (as Mirenat-G) in diet): 6.7 ± 1.49; reduction in the mean number of individuals present ([2]; 0.5% of LAE, after 4-week infestation): 70%; M.I.C. [3]: 64 ppm; M.I.C. [4]: 64 ppm; M.I.C. [5]: 2 ppm; hams with mite colonies alive onto their surface ([6]; 200 ppm (0.02%) LAE on ham surface at start of curing, after 6 months curing): 30%; mite colonies alive inside the ham ([6]; 200 ppm (0.02%) LAE on ham surface, sliced ham after 6 months curing): no presence of mite colonies alive inside the ham; M.I.C. [7]: 16 ppm; M.I.C. [8]: 32 ppm; M.I.C. [9]: 16 ppm; M.I.C. [10]: 16 ppm; Mold mites number ([11]; six weeks after infestation with 25 individuals, n = 15, mean ± SEM): 0.1 ± 0.1^; survivorship of the Mold mite in the standard rearing diet ([11]; six weeks after infestation, monohydrochloride): did not survive; also recorded: very low; Mortality ([12]; 0.2% LAE in a food carrier, n = 5): 6.7%; Mortality ([12]; 1.0% LAE in a food carrier, n = 5, monohydrochloride): 38.7%; M.I.C. [13]: 128 ppm; M.I.C. [14]: 32 ppm; M.I.C. [15]: 20 ppm; M.I.C. [16]: 32 ppm; M.I.C. [17]: 32 ppm; M.I.C. [18]: 32 ppm; M.I.C. [19]: 32 ppm; M.I.C. [20]: 16 ppm; M.I.C. [21]: 64 ppm; M.I.C. [22]: 32 ppm; M.I.C. [23]: 32 ppm; M.I.C. [24]: 10 ppm; M.I.C. [25]: 32 ppm; M.I.C. [26]: 32 ppm; M.I.C. [27]: 32 ppm; M.I.C. [28]: 16 ppm; M.I.C. [29]: 16 ppm; M.I.C. [30]: 16 ppm; M.I.C. [31]: 64 ppm; M.I.C. [32]: 16 ppm; M.I.C. [33]: 128 ppm; absorption and metabolisation [34]: fast absorption and metabolisation into naturally-occurring amino acids and the fatty acid lauric acid; toxicological studies [35]: completely harmless to animals and humans; M.I.C. [36]: 32 ppm

Reference: US20110275714A1, “Use Of Cationic Surfactants As Acaricidal Agents” (priority 2009, published 2011)
